Laboratory results taken from PMC2442655, “Structure-Activity Relationship and Substrate-Dependent Phenomena in Effects of Ginsenosides on Activities of Drug-Metabolizing P450 Enzymes” (PLoS ONE, 2008).
Structures can show the parent of a compound that is named as a salt. Where two headings read alike, the source gives them in different places.

Key:
[1] = biological target: T1, CYP1A2 (Homo sapiens, UniProt P05177); test: Vivid CYP1A2 blue fluorescent assay; conditions: for IC50: IC50 CYP1A2 blue, cDNA-expressed enzyme, Vivid blue substrate 3 µM; for inhibition at 30 min, 50 µM: human
T1 sequence (P05177 1-516): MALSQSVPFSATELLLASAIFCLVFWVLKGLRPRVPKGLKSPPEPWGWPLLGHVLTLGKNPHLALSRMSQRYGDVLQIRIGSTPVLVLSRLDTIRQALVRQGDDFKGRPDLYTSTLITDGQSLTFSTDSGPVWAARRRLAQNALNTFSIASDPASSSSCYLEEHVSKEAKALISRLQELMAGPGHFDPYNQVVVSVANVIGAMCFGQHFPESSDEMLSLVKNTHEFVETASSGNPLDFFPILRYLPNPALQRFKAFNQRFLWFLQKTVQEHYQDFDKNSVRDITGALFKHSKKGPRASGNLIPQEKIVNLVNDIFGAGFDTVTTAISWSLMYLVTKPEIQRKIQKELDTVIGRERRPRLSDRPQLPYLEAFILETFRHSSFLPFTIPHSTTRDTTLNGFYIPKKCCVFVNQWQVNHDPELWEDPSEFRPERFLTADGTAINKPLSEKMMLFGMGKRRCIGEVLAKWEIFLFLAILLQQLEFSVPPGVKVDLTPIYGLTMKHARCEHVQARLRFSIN
Method: (§1) The inhibition of the catalytic activities of cDNA-expressed human P450 enzymes by ginsenosides was determined using Vivid® P450 screening kits (CYP1A2 blue, CYP2C9 red, CYP2C19 blue, CYP2D6 blue, CYP3A4 green and red) according to the manufacturer's instructions (Invitrogen Corporation; Carlsbad, CA, USA).
(§2) In brief, the assays were carried out in Costar® black-wall 96-well plates with ultra thin clear bottoms (Corning Inc, Corning, NY, USA) in a kinetic assay mode. Stock solutions (10 mM) of ginsenosides in methanol were prepared and diluted to various concentrations (2.5× 100, 50, 10, 5, 1 µM). For each well, 40 µL of solution of test compounds or vehicle was incubated with 50 µL pre-mixture (mixture of BACULOSOMES® reagent, regeneration system and reaction buffer) at 37°C for 20 min. The reaction was initiated by adding 10 µL of a mixture of substrate and NADP^+ per well with a respective concentration of Vivid® substrate (Table 1). The plate was read immediately for fluorescence changes every 0.5 min at 37°C for 30 min using a FlexStation II384 fluorometric plate reader (Molecular Devices, Sunnyvale, CA, USA) with respective excitation and emission wavelengths for each P450 enzyme (Table 1). The final methanol volume in the reaction was less than or equal to 1%.

[2] = biological target: T2, CYP2C9 (Homo sapiens, UniProt P11712); test: Vivid CYP2C9 red fluorescent assay; assay type: in vitro ADME; conditions: for inhibition at 30 min, 50 µM: human
T2 construct: purchased Invitrogen Corporation
T2 sequence (P11712 whole entry): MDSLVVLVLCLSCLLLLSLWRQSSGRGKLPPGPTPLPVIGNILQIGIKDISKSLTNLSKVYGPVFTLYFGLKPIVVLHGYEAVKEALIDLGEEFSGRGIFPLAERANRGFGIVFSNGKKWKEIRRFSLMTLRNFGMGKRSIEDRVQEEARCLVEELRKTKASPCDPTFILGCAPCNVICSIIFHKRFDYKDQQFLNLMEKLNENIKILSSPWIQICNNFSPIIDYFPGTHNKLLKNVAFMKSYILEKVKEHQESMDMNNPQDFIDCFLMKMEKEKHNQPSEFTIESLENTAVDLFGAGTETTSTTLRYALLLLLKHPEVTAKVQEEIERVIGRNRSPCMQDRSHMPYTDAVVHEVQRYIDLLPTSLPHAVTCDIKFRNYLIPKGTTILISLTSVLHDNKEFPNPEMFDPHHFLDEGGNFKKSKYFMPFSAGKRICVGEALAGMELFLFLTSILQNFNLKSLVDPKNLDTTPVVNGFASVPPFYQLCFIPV
Method: In brief, the assays were carried out in Costar® black-wall 96-well plates with ultra thin clear bottoms (Corning Inc, Corning, NY, USA) in a kinetic assay mode. […] For each well, 40 µL of solution of test compounds or vehicle was incubated with 50 µL pre-mixture (mixture of BACULOSOMES® reagent, regeneration system and reaction buffer) at 37°C for 20 min. […] The final methanol volume in the reaction was less than or equal to 1%.

[3] = biological target: CYP2C19 (Homo sapiens, UniProt P33261); test: Vivid CYP2C19 blue fluorescent assay; conditions: for inhibition at 30 min, 50 µM: human
Sequence of CYP2C19 (P33261 whole entry): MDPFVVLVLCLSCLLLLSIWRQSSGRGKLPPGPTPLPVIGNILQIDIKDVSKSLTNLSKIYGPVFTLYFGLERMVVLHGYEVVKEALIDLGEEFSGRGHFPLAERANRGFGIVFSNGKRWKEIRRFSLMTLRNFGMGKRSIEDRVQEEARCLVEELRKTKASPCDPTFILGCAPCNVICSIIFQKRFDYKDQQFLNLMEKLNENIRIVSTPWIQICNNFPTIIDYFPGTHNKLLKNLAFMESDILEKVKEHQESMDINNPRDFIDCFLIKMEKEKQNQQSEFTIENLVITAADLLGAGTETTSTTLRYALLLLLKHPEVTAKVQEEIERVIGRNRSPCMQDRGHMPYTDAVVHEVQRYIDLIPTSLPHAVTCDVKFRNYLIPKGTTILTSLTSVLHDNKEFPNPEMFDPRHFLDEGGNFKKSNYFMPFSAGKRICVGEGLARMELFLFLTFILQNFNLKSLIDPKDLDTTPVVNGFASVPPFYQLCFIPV
Method: as §1, §2

[4] = biological target: CYP2D6 (Homo sapiens, UniProt P10635); test: Vivid CYP2D6 blue fluorescent assay; conditions: for inhibition at 30 min, 50 µM: human
Sequence of CYP2D6 (P10635 whole entry): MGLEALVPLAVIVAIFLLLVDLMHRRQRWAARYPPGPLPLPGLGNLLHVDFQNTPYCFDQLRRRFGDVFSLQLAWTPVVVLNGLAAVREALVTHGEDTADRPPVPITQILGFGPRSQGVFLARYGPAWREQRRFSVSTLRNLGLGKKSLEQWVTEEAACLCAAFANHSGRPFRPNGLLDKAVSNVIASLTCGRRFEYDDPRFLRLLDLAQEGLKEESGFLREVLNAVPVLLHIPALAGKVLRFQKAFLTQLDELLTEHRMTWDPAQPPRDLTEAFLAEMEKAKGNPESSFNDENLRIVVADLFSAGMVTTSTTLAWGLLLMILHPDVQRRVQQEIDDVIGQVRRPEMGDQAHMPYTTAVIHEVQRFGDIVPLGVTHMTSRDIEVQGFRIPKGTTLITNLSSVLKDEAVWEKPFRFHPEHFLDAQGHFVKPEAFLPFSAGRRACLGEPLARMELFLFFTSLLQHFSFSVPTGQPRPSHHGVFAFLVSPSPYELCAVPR
Method: as §1, §2

[5] = biological target: T3, CYP3A4 (Homo sapiens, UniProt P08684); test: Vivid CYP3A4 green fluorescent assay; conditions: for inhibition at 30 min, 50 µM: human
T3 sequence (P08684 whole entry): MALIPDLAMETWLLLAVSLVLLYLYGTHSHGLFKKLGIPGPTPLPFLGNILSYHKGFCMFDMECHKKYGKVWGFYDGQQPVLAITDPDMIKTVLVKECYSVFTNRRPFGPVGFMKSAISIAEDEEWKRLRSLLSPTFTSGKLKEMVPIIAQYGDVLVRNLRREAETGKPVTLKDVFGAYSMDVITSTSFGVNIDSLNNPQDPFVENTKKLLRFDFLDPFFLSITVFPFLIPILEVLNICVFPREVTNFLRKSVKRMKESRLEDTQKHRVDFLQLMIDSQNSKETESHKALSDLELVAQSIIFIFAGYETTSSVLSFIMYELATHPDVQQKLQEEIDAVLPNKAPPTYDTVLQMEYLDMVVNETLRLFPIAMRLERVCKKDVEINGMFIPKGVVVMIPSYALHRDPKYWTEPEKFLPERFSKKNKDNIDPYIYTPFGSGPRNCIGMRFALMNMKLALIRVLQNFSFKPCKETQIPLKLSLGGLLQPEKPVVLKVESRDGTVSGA
Method: as §1, §2

[6] = biological target: T3, CYP3A4; test: Vivid CYP3A4 red fluorescent assay; conditions: for inhibition at 30 min, 50 µM: human, recombinant (cDNA-expressed) CYP3A4 BACULOSOMES, probe Vivid red substrate 3 µM
Method: as §1, §2

[7] = recombinant (cDNA-expressed) CYP1A2 BACULOSOMES, probe Vivid blue substrate 3 µM
[8] = cDNA-expressed enzyme, Vivid red substrate 2 µM, maximum concentration 50 µM, read-out: IC50 CYP2C9 red
[9] = recombinant (cDNA-expressed) CYP2D6 BACULOSOMES, probe Vivid blue substrate 10 µM
[10] = recombinant (cDNA-expressed) CYP2C9 BACULOSOMES, probe Vivid red substrate 2 µM
[11] = recombinant (cDNA-expressed) CYP2C19 BACULOSOMES, probe Vivid blue substrate 10 µM
[12] = recombinant (cDNA-expressed) CYP3A4 BACULOSOMES, probe Vivid green substrate 2 µM

Compound | IC50 [1] | inhibition at 30 min, 50 µM [1, 7] | IC50 [2, 8] | IC50 [3] | IC50 [4] | inhibition at 30 min, 50 µM [4, 9] | IC50 [5] | Effect on CYP3A4 catalytic activity, Vivid red assay ([6]; red substrate) | IC50 [6] | inhibition at 30 min, 50 µM [6] | inhibition at 30 min, 50 µM [2, 10] | inhibition at 30 min, 50 µM [3, 11] | inhibition at 30 min, 50 µM [5, 12] | inhibition at 30 min, 50 µM [1] | IC50 [2] | inhibition at 30 min, 50 µM [2] | inhibition at 30 min, 50 µM [3] | inhibition at 30 min, 50 µM [4] | inhibition at 30 min, 50 µM [5] | IC50 ([3]; read-out: IC50 CYP2C19 blue, cDNA-expressed enzyme, Vivid blue substrate 10 µM)
CC(C)(O)CCC[C@@](C)(O)[C@H]1CC[C@]2(C)[C@@H]1[C@H](O)C[C@@H]1[C@@]3(C)CC[C@H](O)C(C)(C)[C@@H]3[C@@H](O)C[C@]12C [20(R)-25-OH-PPT] | > 100 µM | 16.9% | 8.5 µM | 43.9 µM | > 50 µM | 10% | 27.2 µM | activated the catalytic activity of CYP3A4 |  |  |  |  |  |  |  |  |  |  |  | 
CC(C)=CCC[C@@](C)(O)[C@H]1CC[C@]2(C)[C@@H]1[C@H](O)C[C@@H]1[C@@]3(C)CC[C@H](O)C(C)(C)[C@@H]3CC[C@]12C [20(R)-PPD] | > 100 µM | 17.1% | 6.7 µM | 19.2 µM | > 50 µM | 34.9% | 10.3 µM |  | 58.6 µM |  |  |  |  |  |  |  |  |  |  | 
CC(C)=CCC[C@](C)(O[C@@H]1O[C@H](CO)[C@@H](O)[C@H](O)[C@H]1O)[C@H]1CC[C@]2(C)[C@@H]1[C@H](O)C[C@@H]1[C@@]3(C)CC[C@H](O)C(C)(C)[C@@H]3CC[C@]12C [C-K, ginsenoside Compound K] | 23.8 µM |  | 9.1 µM | 45.9 µM | > 50 µM | 49.4% | 30.5 µM |  | 9.1 µM |  |  |  |  |  |  |  |  |  |  | 
CC(C)=CCC[C@](C)(O)[C@H]1CC[C@]2(C)[C@@H]1[C@H](O)C[C@@H]1[C@@]3(C)CC[C@H](O)C(C)(C)[C@@H]3[C@@H](O)C[C@]12C [PPT, protopanaxatriol] | > 100 µM | 13.1% | 31.6 µM | 46.9 µM | > 50 µM | 18.9% | 7.4 µM |  | > 100 µM | 39.4% |  |  |  |  |  |  |  |  |  | 
CC(C)=CCC[C@](C)(O[C@@H]1O[C@H](CO[C@@H]2O[C@H](CO)[C@@H](O)[C@H](O)[C@H]2O)[C@@H](O)[C@H](O)[C@H]1O)[C@H]1CC[C@]2(C)[C@@H]1[C@H](O)C[C@@H]1[C@@]3(C)CC[C@H](O[C@@H]4O[C@H](CO)[C@@H](O)[C@H](O)[C@H]4O[C@@H]4O[C@H](CO)[C@@H](O)[C@H](O)[C@H]4O)C(C)(C)[C@@H]3CC[C@]12C [Rb1] | 37.8 µM |  | > 50 µM | > 100 µM | > 50 µM | 29.1% | > 100 µM |  | > 100 µM | 4.4% | 25.2% | 20.6% | 10.1% |  |  |  |  |  |  | 
CC(C)=CCC[C@](C)(O[C@@H]1O[C@H](CO[C@@H]2OC[C@@H](O)[C@H](O)[C@H]2O)[C@@H](O)[C@H](O)[C@H]1O)[C@H]1CC[C@]2(C)[C@@H]1[C@H](O)C[C@@H]1[C@@]3(C)CC[C@H](O[C@@H]4O[C@H](CO)[C@@H](O)[C@H](O)[C@H]4O[C@@H]4O[C@H](CO)[C@@H](O)[C@H](O)[C@H]4O)C(C)(C)[C@@H]3CC[C@]12C [Rb3] | > 100 µM | 31.3% | > 50 µM | > 100 µM | > 50 µM | 49.4% | 99.7 µM |  | 68.8 µM |  | 17.6% | 5% |  |  |  |  |  |  |  | 
CC(C)=CCC[C@](C)(O[C@@H]1O[C@H](CO)[C@@H](O)[C@H](O)[C@H]1O)[C@H]1CC[C@]2(C)[C@@H]1[C@H](O)C[C@@H]1[C@@]3(C)CC[C@H](O)C(C)(C)[C@@H]3[C@@H](O[C@@H]3O[C@H](CO)[C@@H](O)[C@H](O)[C@H]3O[C@@H]3O[C@@H](C)[C@H](O)[C@@H](O)[C@H]3O)C[C@]12C [Re] | > 100 µM | 28.1% | > 50 µM | > 100 µM | > 50 µM | 44.2% | > 100 µM |  | 66.1 µM |  | 38% | 8.8% | 4.3% |  |  |  |  |  |  | 
CC(C)=CCC[C@](C)(O[C@@H]1O[C@H](CO)[C@@H](O)[C@H](O)[C@H]1O)[C@H]1CC[C@]2(C)[C@@H]1[C@H](O)C[C@@H]1[C@@]3(C)CC[C@H](O)C(C)(C)[C@@H]3[C@@H](O[C@@H]3O[C@H](CO)[C@@H](O)[C@H](O)[C@H]3O)C[C@]12C [Rg1] | > 100 µM | 30.2% | > 50 µM | > 100 µM | > 50 µM | 17.7% | > 100 µM |  | > 100 µM | 16.9% | 21.7% | 11.7% | 8.1% |  |  |  |  |  |  | 
CC(C)=CCC[C@](C)(O)[C@H]1CC[C@]2(C)[C@@H]1[C@H](O)C[C@@H]1[C@@]3(C)CC[C@H](O)C(C)(C)[C@@H]3[C@@H](O[C@@H]3O[C@H](CO)[C@@H](O)[C@H](O)[C@H]3O[C@@H]3O[C@@H](C)[C@H](O)[C@@H](O)[C@H]3O)C[C@]12C [Rg2] | > 100 µM |  |  | > 100 µM | > 50 µM |  | > 100 µM |  | 47 µM |  |  |  |  | 29.2% | > 50 µM | 20.1% | 14.8% | 37.2% | 19.4% | 
CC(C)=CCC[C@](C)(O)[C@H]1CC[C@]2(C)[C@@H]1[C@H](O)C[C@@H]1[C@@]3(C)CC[C@H](O[C@@H]4O[C@H](CO)[C@@H](O)[C@H](O)[C@H]4O[C@@H]4O[C@H](CO)[C@@H](O)[C@H](O)[C@H]4O)C(C)(C)[C@@H]3CC[C@]12C [Rg3] | 32.4 µM |  | 18.5 µM | 47 µM | 9.3 µM |  | 86.4 µM |  | 25.2 µM |  |  |  |  |  |  |  |  |  |  | 
Clc1ccc(COC(Cn2ccnc2)c2ccc(Cl)cc2Cl)c(Cl)c1 (stereo not shown) [miconazole nitrate salt, reference compound] |  |  |  |  |  |  |  |  |  |  |  |  |  |  |  |  |  |  |  | 0.25 µM
